In patent publication US20050203191A1, “1-Aminocyclohexane derivatives for the treatment of agitation and other behavioral disorders, especially those associated with alzheimer's disease” (priority 2004, published 2005):

Test system: patients with moderate-to-severe AD
Assay: MD-01: 24-week trial of memantine as monotherapy
Type: in vivo, human
Conditions: MD-01, week 24, ITT LOCF
Procedure: MD-01: MD-01 was a trial evaluating memantine as monotherapy for the treatment of patients with moderate-to-severe AD lasting for 24 weeks. About 350 patients were enrolled. Efficacy was evaluated using the Severe Impairment Battery (SIB), the Assessment of Daily Living (ADL) and the CIBIC-plus Scales.
The five memantine trials were evaluated using an analysis of patient for a population having an NPI agitation subscale score of >4 ([…]) and for a population having an NPI score of <4 ([…]). For each NPI population, changes in SIB, ADAS-cog and/or ADL were calculated using the least square (LS) mean difference for memantine and placebo-treated patients. Similarly, for each NPI population, the raw mean difference between memantine and placebo was calculated for the CIBIC-plus results.
For primary efficacy measurements the comparison between memantine and placebo was performed using two-way analysis of covariance (ANCOVA) with treatment group and center as the two factors, and the baseline scores as covariate. Both the LOCF imputation approach and the OC approach are performed at the end of the trials.
For secondary efficacy measurements, the comparison between memantine and placebo was performed using two-way analysis of covariance (ANCOVA) with treatment group and center as the two main effects, and the baseline scores as covariate. Descriptive statistics were calculated by Visit. Again, all analyses were performed using both the LOCF imputation approach and the OC approach.
Results of ANCOVA were summarized using least square (LS) means for each treatment group with corresponding standard error (SE), the between-treatment (2-24 week) difference in the least square means with corresponding 95% confidence interval, and the between-treatment p-value corresponds to the SAS Type III sum of squares.
In data Tables 5-19, the Overall Memantine versus Placebo columns of studies MD-01, MD-02, MD-10 and MD-12 used an ANCOVA model with baseline total score as covariate, treatment and study center as factors for SIB, ADL or ADAS-cog; CMH test controlling for study center for CIBIC-Plus. For MZ-9605, results are based on arithmetic means and the Wilcoxon-Mann-Whitney test. The Agitation score columns/NPI/antipsychotics columns, except CIBIS-Plus, calculated the p-values and LS mean differences within the subgroups from an ANCOVA model with baseline total score as covariate, subgroup (yes/no), treatment, and treatment by subgroup interactions as factors. For CIBIS-Plus, the p-values and raw mean differences within a subgroup were calculated using the CMH test controlling for study center.
Patients in the same five trials described above were stratified into two sub-groups in a second analysis, those with an NPI total score in the top quartile (≧75%), or those more severely impaired at baseline, and those with an NPI total score <75%, or less severe impairment at baseline. Similar to as in Example 1, results were evaluated using the change in SIB (cognitive endpoint), and change in ADCS-ADL (functional endpoint), using the LS mean. The change in the CIBIC-plus (global endpoint) was assessed using the raw mean.
A sub-population of patients from the five trials, MD-01, MD-02, MD-10, MD-12, and MZ-9605, were concurrently taking antipsychotics.

[1] = NPI total score ≧=75% (top quartile)
[2] = antipsychotics usage “YES” (N = n)
[3] = antipsychotics usage “YES” (N = y)
[4] = baseline NPI agitation score <4
[5] = baseline NPI agitation score ≧=4
[6] = baseline NPI agitation score ≧=4, listed as MEM

## CC12CC3CC(C)(C1)CC(N)(C3)C2 [memantine, 1-amino-3,5-dimethyl adamantane]
NPI total score <75%
  ADCS-ADL (change) LS Mean Diff., MEM v. PLA: 0.87
  ADCS-ADL (change) mean: −1.1
  CIBIC-PLUS Raw Mean Diff., MEM v. PLA: −0.2
  CIBIC-PLUS mean: 4.3
  SIB (change) LS Mean Diff., MEM v. PLA: 0.3
  SIB (change) mean: −1.2
[1]
  ADCS-ADL (change) LS Mean Diff., MEM v. PLA: −0.05
  ADCS-ADL (change) mean: −2.3
  CIBIC-PLUS Raw Mean Diff., MEM v. PLA: −0.2
  CIBIC-PLUS mean: 4.5
  SIB (change) LS Mean Diff., MEM v. PLA: 3.5
  SIB (change) mean: −2.8
[2]
  ADCS-ADL (change) LS Mean Diff., MEM v. PLA: 0.8
  ADCS-ADL (change) mean: −0.8
  CIBIC-PLUS Raw Mean Diff., MEM v. PLA: −0.26
  CIBIC-PLUS mean: 4.26
  SIB (change) LS Mean Diff., MEM v. PLA: 1.7
  SIB (change) mean: −0.5
[3]
  ADCS-ADL (change) LS Mean Diff., MEM v. PLA: −0.15
  ADCS-ADL (change) mean: −3.8
  CIBIC-PLUS Raw Mean Diff., MEM v. PLA: −0.1
  CIBIC-PLUS mean: 4.63
  SIB (change) LS Mean Diff., MEM v. PLA: −1.9
  SIB (change) mean: −6.2
[4]
  ADCS-ADL (change) LS Mean Diff., MEM v. PLA: 0.36
  ADCS-ADL (change) mean: −1.3
  CIBIC-PLUS Raw Mean Diff., MEM v. PLA: −0.2
  CIBIC-PLUS mean: 4.3
  SIB (change) LS Mean Diff., MEM v. PLA: −0.15
  SIB (change) mean: −1.9
[5]
  ADCS-ADL (change) LS Mean Diff., MEM v. PLA: 1.18
  ADCS-ADL (change) mean: −3.2
  CIBIC-PLUS Raw Mean Diff., MEM v. PLA: 0
  CIBIC-PLUS mean: 4.7
  SIB (change) LS Mean Diff., MEM v. PLA: 4.65
  SIB (change) mean: −1.0
[6]
  ADCS-ADL (change) mean: −2.2
  CIBIC-PLUS Raw Mean Diff., MEM v. PLA: 0.0
overall
  ADCS-ADL (change) LS Mean Diff., MEM v. PLA: 0.70
  ADCS-ADL (change) LS mean: −2.00
  CIBIC-PLUS LS mean: 4.30
  CIBIC-PLUS Raw Mean Diff., MEM v. PLA: −0.30
  SIB (change) LS Mean Diff., MEM v. PLA: 0.60
  SIB (change) LS mean: −2.00
